Reference: PubChem BioAssay AID2060616 (Molecular Pharmacology Branch, DTP, NCI, 2025)

Test system: 377384-186-R-J1-PDC complex spheroid viability
Test: Anticancer human tumor 377384-186-R-J1-PDC patient-derived pancreatic carcinoma cell line growth inhibition [CLK]
Details: for IC50: curve of first compound; for viability, T/C: stronger effect = lower value
Procedure, shortened: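 Patient-derived tumor cells grown as complex spheroids with HUVEC endothelial cells and mesenchymal stem cells, treated with drug combinations. Concentrations descend in half-log steps from near clinical Cmax, or from 10 microM if Cmax unknown.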

[1] = second compound 0.0316 µM, first compound 0.0316 µM
[2] = second compound 0.0316 µM, first compound 0.1 µM
[3] = second compound 0.0316 µM, first compound 0.316 µM
[4] = second compound 0.0316 µM, first compound 1 µM
[5] = second compound 0.0316 µM, first compound 3.16 µM
[6] = second compound 0.0316 µM, first compound 10 µM
[7] = second compound 0.1 µM, first compound 0.0316 µM
[8] = second compound 0.1 µM, first compound 0.1 µM
[9] = second compound 0.1 µM, first compound 0.316 µM
[10] = second compound 0.1 µM, first compound 1 µM
[11] = second compound 0.1 µM, first compound 3.16 µM
[12] = second compound 0.1 µM, first compound 10 µM
[13] = second compound 0.316 µM, first compound 0.0316 µM
[14] = second compound 0.316 µM, first compound 0.1 µM
[15] = second compound 0.316 µM, first compound 0.316 µM
[16] = second compound 0.316 µM, first compound 1 µM
[17] = second compound 0.316 µM, first compound 3.16 µM
[18] = second compound 0.316 µM, first compound 10 µM
[19] = second compound 1 µM, first compound 0.0316 µM
[20] = second compound 1 µM, first compound 0.1 µM
[21] = second compound 1 µM, first compound 0.316 µM
[22] = second compound 1 µM, first compound 1 µM
[23] = second compound 1 µM, first compound 3.16 µM
[24] = second compound 1 µM, first compound 10 µM
[25] = second compound 3.16 µM, first compound 0.0316 µM
[26] = second compound 3.16 µM, first compound 0.1 µM
[27] = second compound 3.16 µM, first compound 0.316 µM
[28] = second compound 3.16 µM, first compound 1 µM
[29] = second compound 3.16 µM, first compound 3.16 µM
[30] = second compound 3.16 µM, first compound 10 µM
[31] = second compound 10 µM, first compound 0.0316 µM
[32] = second compound 10 µM, first compound 0.1 µM
[33] = second compound 10 µM, first compound 0.316 µM
[34] = second compound 10 µM, first compound 1 µM
[35] = second compound 10 µM, first compound 3.16 µM
[36] = second compound 10 µM, first compound 10 µM
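Further: spheroids exposed to agents for 7 days before reading.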
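Wherever viability, T/C is given: luminescence signal used as a stand-in for viable cells.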

With `CC1(C)CCC(CN2CCN(c3ccc(C(=O)NS(=O)(=O)c4ccc(NCC5CCOCC5)c([N+](=O)[O-])c4)c(Oc4cnc5[nH]ccc5c4)c3)CC2)=C(c2ccc(Cl)cc2)C1` + CNC(=O)c1ccc(Nc2nc(OC3CCCC3)c3c(-c4ccc5nc(C)oc5c4)c[nH]c3n2)c(OC)c1 the IC50 (second compound 0.0316 µM) was > 10000 nM, the IC50 (second compound 0.1 µM) was > 10000 nM and the IC50 (second compound 0.316 µM) was < 31.6 nM. For the same compound, the IC50 (second compound 1 µM) was < 31.6 nM, the IC50 (second compound 3.16 µM) was < 31.6 nM and the IC50 (second compound 10 µM) was < 31.6 nM. For the same compound, the viability, T/C [1] was 105%, the viability, T/C [2] was 93.2% and the viability, T/C [3] was 96.9%. It also gave a viability, T/C [4] of 109%, a viability, T/C [5] of 82.1% and a viability, T/C [6] of 104%. For the same compound, the viability, T/C [7] was 59.8%, the viability, T/C [8] was 57.4% and the viability, T/C [9] was 49.3%. The viability, T/C [10] was 56.6%, the viability, T/C [11] was 36.4% and the viability, T/C [12] was 59.8%. The viability, T/C [13] was 20.4%, the viability, T/C [14] was 21.6% and the viability, T/C [15] was 19.7%. The viability, T/C [16] was 19%, the viability, T/C [17] was 17.6% and the viability, T/C [18] was 21.1%. For the same compound, the viability, T/C [19] was 23.3%, the viability, T/C [20] was 22.5% and the viability, T/C [21] was 18.2%. For the same compound, the viability, T/C [22] was 19.1%, the viability, T/C [23] was 19.3% and the viability, T/C [24] was 21.6%. The viability, T/C [25] was 20.2%, the viability, T/C [26] was 20.7% and the viability, T/C [27] was 20%. For the same compound, the viability, T/C [28] was 18.8%, the viability, T/C [29] was 21.9% and the viability, T/C [30] was 20.9%. For the same compound, the viability, T/C [31] was 20.2%, the viability, T/C [32] was 21.6% and the viability, T/C [33] was 21.2%. For the same compound, the viability, T/C [34] was 20.1%, the viability, T/C [35] was 19.2% and the viability, T/C [36] was 21.3%.

In the case of `NC(=O)C(=Cn1cnc(-c2cc(C(F)(F)F)cc(C(F)(F)F)c2)n1)c1cncnc1` + CNC(=O)c1ccc(Nc2nc(OC3CCCC3)c3c(-c4ccc5nc(C)oc5c4)c[nH]c3n2)c(OC)c1, the IC50 (second compound 0.0316 µM) is reported as 52.6 nM, the IC50 (second compound 0.1 µM) is reported as 12.3 nM and the IC50 (second compound 0.316 µM) is reported as < 9.49 nM. The IC50 (second compound 1 µM) was < 9.49 nM, the IC50 (second compound 3.16 µM) was < 9.49 nM and the IC50 (second compound 10 µM) was < 9.49 nM. It also gave a viability, T/C (second compound 0.0316 µM, first compound 0.00949 µM) of 97.1%, a viability, T/C (second compound 0.0316 µM, first compound 0.03 µM) of 59.2% and a viability, T/C (second compound 0.0316 µM, first compound 0.0949 µM) of 40.4%. It also gave a viability, T/C (second compound 0.0316 µM, first compound 0.3 µM) of 21.2%, a viability, T/C (second compound 0.0316 µM, first compound 0.949 µM) of 5.59% and a viability, T/C (second compound 0.0316 µM, first compound 3 µM) of 2.3%. For the same compound, the viability, T/C (second compound 0.1 µM, first compound 0.00949 µM) was 52.9%, the viability, T/C (second compound 0.1 µM, first compound 0.03 µM) was 39.7% and the viability, T/C (second compound 0.1 µM, first compound 0.0949 µM) was 25.5%. For the same compound, the viability, T/C (second compound 0.1 µM, first compound 0.3 µM) was 16.1%, the viability, T/C (second compound 0.1 µM, first compound 0.949 µM) was 3.56% and the viability, T/C (second compound 0.1 µM, first compound 3 µM) was 1.95%. The viability, T/C (second compound 0.316 µM, first compound 0.00949 µM) was 19.2%, the viability, T/C (second compound 0.316 µM, first compound 0.03 µM) was 17.7% and the viability, T/C (second compound 0.316 µM, first compound 0.0949 µM) was 17.1%. It also gave a viability, T/C (second compound 0.316 µM, first compound 0.3 µM) of 8.59%, a viability, T/C (second compound 0.316 µM, first compound 0.949 µM) of 2.04% and a viability, T/C (second compound 0.316 µM, first compound 3 µM) of 2.27%. For the same compound, the viability, T/C (second compound 1 µM, first compound 0.00949 µM) was 18.9%, the viability, T/C (second compound 1 µM, first compound 0.03 µM) was 20.9% and the viability, T/C (second compound 1 µM, first compound 0.0949 µM) was 16.2%. For the same compound, the viability, T/C (second compound 1 µM, first compound 0.3 µM) was 7.4%, the viability, T/C (second compound 1 µM, first compound 0.949 µM) was 1.54% and the viability, T/C (second compound 1 µM, first compound 3 µM) was 0.93%. It also gave a viability, T/C (second compound 3.16 µM, first compound 0.00949 µM) of 18.7%, a viability, T/C (second compound 3.16 µM, first compound 0.03 µM) of 18.7% and a viability, T/C (second compound 3.16 µM, first compound 0.0949 µM) of 15.5%. It also gave a viability, T/C (second compound 3.16 µM, first compound 0.3 µM) of 6.58%, a viability, T/C (second compound 3.16 µM, first compound 0.949 µM) of 1.89% and a viability, T/C (second compound 3.16 µM, first compound 3 µM) of 1.09%. The viability, T/C (second compound 10 µM, first compound 0.00949 µM) was 21.7%, the viability, T/C (second compound 10 µM, first compound 0.03 µM) was 17.9% and the viability, T/C (second compound 10 µM, first compound 0.0949 µM) was 12.8%. The viability, T/C (second compound 10 µM, first compound 0.3 µM) was 6.06%, the viability, T/C (second compound 10 µM, first compound 0.949 µM) was 1.42% and the viability, T/C (second compound 10 µM, first compound 3 µM) was 1.91%.

With `Nc1ccccc1NC(=O)c1ccc(CNC(=O)OCc2cccnc2)cc1` + CNC(=O)c1ccc(Nc2nc(OC3CCCC3)c3c(-c4ccc5nc(C)oc5c4)c[nH]c3n2)c(OC)c1 the IC50 (second compound 0.0316 µM) was 434 nM, the IC50 (second compound 0.1 µM) was 128 nM and the IC50 (second compound 0.316 µM) was < 31.6 nM. For the same compound, the IC50 (second compound 1 µM) was < 31.6 nM, the IC50 (second compound 3.16 µM) was < 31.6 nM and the IC50 (second compound 10 µM) was < 31.6 nM. It also gave a viability, T/C [1] of 94.4%, a viability, T/C [2] of 75.5% and a viability, T/C [3] of 62.5%. It also gave a viability, T/C [4] of 26.7%, a viability, T/C [5] of 11.9% and a viability, T/C [6] of 1.2%. For the same compound, the viability, T/C [7] was 57.9%, the viability, T/C [8] was 57.2% and the viability, T/C [9] was 35.9%. For the same compound, the viability, T/C [10] was 30.2%, the viability, T/C [11] was 12.3% and the viability, T/C [12] was 1.53%. For the same compound, the viability, T/C [13] was 24.8%, the viability, T/C [14] was 23.2% and the viability, T/C [15] was 18%. It also gave a viability, T/C [16] of 19.4%, a viability, T/C [17] of 9.99% and a viability, T/C [18] of 1.4%. The viability, T/C [19] was 22.6%, the viability, T/C [20] was 23% and the viability, T/C [21] was 19.7%. The viability, T/C [22] was 21.5%, the viability, T/C [23] was 12.6% and the viability, T/C [24] was 1.83%. It also gave a viability, T/C [25] of 20.9%, a viability, T/C [26] of 21.6% and a viability, T/C [27] of 21.7%. It also gave a viability, T/C [28] of 16.9%, a viability, T/C [29] of 12.1% and a viability, T/C [30] of 0.82%. The viability, T/C [31] was 20.6%, the viability, T/C [32] was 22.9% and the viability, T/C [33] was 19%. It also gave a viability, T/C [34] of 18.6%, a viability, T/C [35] of 13.7% and a viability, T/C [36] of 1.29%.
